According to PMC6368574, “Probing the Inhibition of Microtubule Affinity Regulating Kinase 4 by N-Substituted Acridones” (Scientific Reports, 2019):
Where two headings read alike, the source gives them in different places.

Key:
[1] = system: HEK293 cells; assay: MTT cell viability assay, HEK293; assay type: cell-based; details: Homo sapiens, Table S2
Description: (§1) Initially, all synthesized acridone derivatives were evaluated for their cytotoxicity potential on MCF-7, HepG2 and HEK293 cell lines by MTT assay. These synthesized acridone derivatives were screened in the concentration range of 0–200 µM, for 24 and 48 h. […] It was also interesting that in the studied […] concentration range these compounds don’t show considerable cytotoxicity towards HEK293 cell lines. […] Thus, compounds 5, 7b, 7d, 7f and 7h were taken for further cell based studies such as apoptosis and reactive oxygen species (ROS) production.
(§2) To study the effect of synthesized acridone derivatives on cell viability and proliferation, a standard MTT method was carried out. Cells were plated (8000–9000/well) in a 96-well plate and incubated overnight. On the next day, cells were treated with increasing concentrations (0.1–80 μM) of synthesized acridone derivatives in a final volume of 200 µl for 48 h at 37 °C in a humidified chamber. At the end of treatment time point, 20 µl of MTT solution (from 5 mg/ml stock solution in phosphate buffer saline, pH 7.4) was added to each well and incubated further for 4–5 h at 37 °C in the CO2 incubator. After stipulated time the supernatant was aspirated and the colored formazan crystal produced as a result of MTT reduction was dissolved in 100 µl of DMSO. The absorbance (A) of colored product was then measured at 570 nm on a multiplate ELISA reader (BioRad). The percentage of viable cells was calculated and used to estimate the IC50 (50% inhibitory concentration) values for each acridone derivative. For cell proliferation studies paclitaxel has been taken as positive control.

[2] = system: HepG2 cells; assay: MTT cell viability assay, HepG2; assay type: cell-based; details: Homo sapiens, Table S2
Description: as §1, §2

[3] = target: T1, recombinant MARK4 (Homo sapiens, UniProt Q96L34); assay: Fluorescence binding (quenching, modified Stern-Volmer); details: Table S3; fluorescence binding; read-out: Binding affinity (Ka) (converted)
T1 construct: made in house; host or cells: bacterial cells (Luria-Bertani broth, IPTG induction)
T1 sequence (Q96L34 1-752): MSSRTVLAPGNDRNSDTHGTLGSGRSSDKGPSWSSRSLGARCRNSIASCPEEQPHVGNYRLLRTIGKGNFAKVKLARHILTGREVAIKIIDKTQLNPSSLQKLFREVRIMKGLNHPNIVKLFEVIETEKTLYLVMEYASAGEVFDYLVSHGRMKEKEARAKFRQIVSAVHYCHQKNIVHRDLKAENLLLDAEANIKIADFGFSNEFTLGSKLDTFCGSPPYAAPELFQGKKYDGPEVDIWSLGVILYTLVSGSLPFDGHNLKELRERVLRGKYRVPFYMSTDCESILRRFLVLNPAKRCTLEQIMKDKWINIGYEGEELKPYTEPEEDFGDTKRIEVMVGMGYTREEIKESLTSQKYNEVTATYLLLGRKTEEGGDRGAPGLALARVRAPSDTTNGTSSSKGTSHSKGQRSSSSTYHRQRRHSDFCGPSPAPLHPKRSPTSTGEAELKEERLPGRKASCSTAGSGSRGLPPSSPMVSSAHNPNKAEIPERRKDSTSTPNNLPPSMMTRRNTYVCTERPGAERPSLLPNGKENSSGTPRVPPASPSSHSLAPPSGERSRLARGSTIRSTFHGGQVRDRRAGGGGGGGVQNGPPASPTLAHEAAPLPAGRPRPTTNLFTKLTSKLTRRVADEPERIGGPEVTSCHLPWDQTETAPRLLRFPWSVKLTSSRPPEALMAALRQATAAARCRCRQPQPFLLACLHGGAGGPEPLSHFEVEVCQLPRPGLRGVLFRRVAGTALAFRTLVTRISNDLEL
Description: To determine the binding affinities of the synthesized acridones with MARK4, we used fluorescence emission spectra measurements. Protein sample was excited at 280 nm and emission was measured in 300–400 nm range with increasing concentrations of each acridone derivative (0–100 µM). A significant decrease in fluorescence intensity of MARK4 with increasing concentrations of each compound was fitted in the modified Stern-Volmer equation to calculate the binding constant, Ka and the number of binding sites per protein molecule (n). All the synthesized acridones have been screened (Supplementary Fig. S6, S7 and Table S3) and those with the highest affinity have been selected (compounds 5, 7b, 7d, 7f and 7h) for further evaluation (Fig. 3). The binding constants of compound 5, 7b, 7d, 7f and 7h were estimated as 6.3 × 10^4 M^−1, 1.0 × 10^6 M^−1, 1.0 × 10^6 M^−1, 1.9 × 10^6 M^−1, and 3.1 × 10^5 M^−1, respectively (Fig. 3).
Figure 3 Fluorescence binding studies of compound 5, 7b, 7d, 7f and 7h with MARK4. (A) Fluorescence emission spectra of MARK4 (10 µM) with increasing concentrations of the respective compound (5, 7b, 7d, 7f and 7h). Excitation wavelength was fixed at 280 nm and emission was recorded in 300–400 nm range. (B) Modified Stern-Volmer plot obtained from fluorescence quenching of MARK4 by compound 5, 7b, 7d, 7f and 7h, respectively. It was used to calculate binding affinity (Ka) and number of binding sites (n).
Binding affinities of synthesized acridone derivatives with recombinant MARK4 was carried out by observing the fluorescence intensity change of emission spectrum of MARK4 by following our previously published protocol[44],[45]. Each titration of protein was performed in triplicates and the average was taken for analysis. A significant decreased in fluorescence intensity of protein with increase in the concentration of acridone derivatives were used as the criteria for deducing the binding constant (Ka) as well as number of binding sites (n) present on the protein molecule using the modified Stern-Volmer equation[46]:1 log(Fo−F)/F=logKa+nlog[L] where, Fo = Fluorescence intensity of native protein, F = Fluorescence intensity of protein in the presence of ligand, Ka = Binding constant, n = number of binding sites, L = concentration of ligand. The values for Ka and n were derived from the intercept and slope, respectively.

[4] = system: MCF-7 cells; assay: MTT cell viability assay, MCF-7; assay type: cell-based; details: Homo sapiens, MCF7; Table S2; MTT; read-out: IC50 (µM) MCF-7
Description: as §1, §2

[5] = target: T1, recombinant MARK4; assay: ATPase enzyme inhibition assay (Malachite Green); assay type: biochemical
Description: To evaluate the inhibition activity of synthesized acridone derivatives against recombinant MARK4, ATPase enzyme inhibition assay was performed (Table S3). […] Our studies were initiated by replacing the ester group of 5 with sterically and electronically diverse amines affording the corresponding amides 7a–j, in order to establish favorable interactions with residues Ala135, Val70, Asp196 and/or Glu182. […] In this case, the docking studies indicate a better fit of 7h compared with 7g in the active site of MARK4 with a binding energy of −9.5 kcal/mol and a stronger predicted hydrogen bond with Ala135 (3.06 Å for 7h, 3.19 Å for 7g).
Enzyme activity of MARK4 was evaluated with the help of standard Malachite Green (Biomol Green reagent, Enzo Life Sciences) microtitre-plate assay as described earlier. Estimated amount of MARK4 (200 ng) and 20 µM ATP as a substrate were incubated for 10–15 min at 25 °C with increasing concentrations (0–20 µM) of synthesized acridone derivatives, in 20 mM Tris buffer, pH 8.0. Reaction was terminated by the adding 100 µl of Biomol Green reagent and absorbance of final reaction products was recorded at 620 nm in a multiplate ELSIA reader (BioRad). In order to quantify the hydrolyzed phosphate, inorganic phosphate standard curve were prepared from the phosphate standard solutions as supplied by the manufacturer (Biomol Green reagent, Enzo Life Sciences). All data points represent triplicate measurements from at least three independent experiments.

[6] = system: MARK2; design: method as in PMID 21984823; details: cited from earlier work
[7] = Table S3, read-out: IC50, (µM), for MARK4 Inhibition
[8] = ATPase inhibition, 20 µM ATP, read-out: IC50 against MARK4

SMILES	IC50 [2]	Kd [3]	IC50 [4]	melting point	MARK4 inhibition, comparison in words ([5]; ATPase inhibition)	IC50 [5, 7]	IC50 [5, 8]	IC50 [1]	IC50 [6]
COC(=O)c1ccc(NC(=O)Cn2c3ccccc3c(=O)c3cc(C)ccc32)cc1 [Compound 7i, Methyl 4-(2-(2-methyl-9-oxoacridin-10(9H)-yl)acetamido)benzoate]	25.1 µM	1580 µM	14.1 µM	–	–	–	> 20 µM	> 200 µM	–
CCOC(=O)c1cnc(NC(=O)Cn2c3ccccc3c(=O)c3ccccc32)s1 [Compound 30199]	–	–	–	–	–	–	–	–	< 10 µM
COc1ccc2c(c1)c(=O)c1ccccc1n2CC(=O)Nc1cccc(C(F)(F)F)c1 [Compound 30019]	–	–	–	–	–	–	–	–	< 10 µM
N#Cc1ccc(NC(=O)Cn2c3ccccc3c(=O)c3ccccc32)cc1 [Compound 30197]	–	–	–	–	–	–	–	–	< 10 µM
O=C(Cn1c2ccccc2c(=O)c2ccccc21)Oc1ccccc1F [Compound 30195]	–	–	–	–	–	–	–	–	< 10 µM

Second part, led by results:

IC50 [2]	Kd [3]	IC50 [4]	melting point	MARK4 inhibition, comparison in words ([5]; ATPase inhibition)	IC50 [5, 7]	IC50 [5, 8]	SMILES	IC50 [1]	IC50 [6]
23.8 µM	1580 µM	13.8 µM	290 to 293 °C	less potent than 7b	> 20 µM	–	Cc1ccc2c(c1)c(=O)c1ccccc1n2CC(=O)Nc1ccccc1 [Compound 7e, 2-(2-Methyl-9-oxoacridin-10(9H)-yl)-N-phenylacetamide]	> 200 µM	–
24.3 µM	501 µM	12.3 µM	–	–	> 20 µM	–	Cc1ccc2c(c1)c(=O)c1ccccc1n2CC(=O)N1CCOCC1 [Compound 7a, 2-Methyl-10-(2-morpholino-2-oxoethyl)acridin-9(10H)-one]	> 200 µM	–
21.2 µM	158 µM	14.3 µM	282 to 286 °C	–	> 20 µM	> 20 µM	COc1ccc(NC(=O)Cn2c3ccccc3c(=O)c3cc(C)ccc32)cc1 [Compound 7g, N-(4-methoxyphenyl)-2-(2-methyl-9-oxoacridin-10(9H)-yl)acetamide]	> 200 µM	–
24.4 µM	501 µM	16.3 µM	306 to 309 °C	–	–	> 20 µM	CC(=O)c1ccc(NC(=O)Cn2c3ccccc3c(=O)c3cc(C)ccc32)cc1 [Compound 7j, N-(4-acetylphenyl)-2-(2-methyl-9-oxoacridin-10(9H)-yl)acetamide]	> 200 µM	–
19.4 µM	501 µM	11.9 µM	131 to 141 °C	much weaker inhibitor	> 20 µM	–	Cc1ccc2c(c1)c(=O)c1ccccc1n2CC(=O)N(C)Cc1ccccc1 [Compound 7c, N-benzyl-N-methyl-2-(2-methyl-9-oxoacridin-10(9 H)-yl)acetamide]	> 200 µM	–
